The values below come from patent US20040237845A1 (priority 2002, published 2004).

The format of the assay is physicochemical. The following applies: kaolin clay slurry, no further addition of acid or chlorine donor.

With “Sodium Chlorite [stabilized chlorine dioxide]”, the “persistence of oxidizing/biocidal effects” value was “up to 14 days”.
